Results taken from patent publication US8283373B2, “Inhibitors of cytosolic phospholipase A2” (Pfizer Inc., priority 2005, dated 2012).

Key:
[1] = system: Human platelet aggregation; assay: Platelet Function Analyzer (PFA-100) study; assay type: cell-based; settings: whole human blood, Collagen/Epinephrine cartridges, 1.25 μg/ml
Protocol: Human platelet aggregation was studied using the platelet function analyzer (PFA-100®). Human blood was collected from volunteers who had denied taking any platelet inhibitory medications over the previous two weeks. Blood was collected in 3.2% sodium citrate Vacutainer tubes (Becton Dickinson). Tubes were inverted 5 times and the blood was transferred to 15 ml polypropylene conical tubes. […] Tubes were inverted 10 times to mix, and allowed to sit at room temperature for 10 minutes prior to run in PFA-100. The manufacturers protocol was followed for the PFA-100 using Collagen/Epinephrine cartridges (0.5% DMSO alone in whole blood gave closure times of 125+/−13.9 seconds). Maximum closure time is 300 seconds, as set by the manufacturer.
All compounds were efficacious in the platelet function assay.

serum thromboxane B2 = assay: Thromboxane B2 levels in the ApoE KO mouse model; assay type: in vivo; settings: ApoE KO mice, 3.3 mg/g chow for two days; vehicle 76.1±17.3
Protocol: Blood was collected through the retro-orbital siunus and left to coagulate at 37° C. for one hour. Serum was then isolated and assayed for thromboxane B2 by ELISA.
In a separate experiment, ApoE KO mice were dosed with vehicle or the compound of Example 25 at 10 mg/kg by oral gavage. Blood was collected through the retro-orbital siunus and left to coagulate at 37° C. for one hour. Serum was then isolated and assayed for thromboxane B2 by ELISA.

[2] = system: atherosclerosis in ApoE KO mice; assay: ApoE KO mouse model of atherosclerosis (20 weeks); assay type: in vivo; settings: for decrease of atherosclerotic plaque burden at the aortic sinus vs control / atherosclerotic plaque burden at the aortic sinus: 20 weeks; for atherosclerotic plaque burden at the aortic sinus: control 519220±100694; for Atherosclerotic Lesions Along the Aorta (percent lesion area), % Decrease vs Control: ns = not significant
Protocol: The apolipoprotein E (ApoE) knockout mouse was created by gene targeting in embryonic stem cells to disrupt the ApoE gene. ApoE is a glycoprotein that is responsible for the uptake of chylomicrons and VLDL particles by the liver, thereby preventing the accumulation of cholesterol rich remnants in the blood stream.
Six week old male ApoE KO mice were treated with 4-{3-[1-benzhydryl-5-chloro-2-(2-{[(3,4-dichlorobenzyl)sulfonyl]amino}ethyl)-1H-indol-3-yl]propyl}benzoic acid (Compound C).

[3] = system: primary dopaminergic neurons; assay: MPP+ exposure in dopaminergic neurons; assay type: cell-based, rat; settings: 10 μM MPP+ 60 minutes, control 100, MPP+ alone 56.6
Protocol: Primary dopaminergic neurons were isolated from E15 rat embryos as described in Pong K., et al., (1997) J. Neurochem. 69 986-994. Briefly, the ventral mesencephalon was isolated and tissue was pooled in ice-cold phosphate buffer saline (PBS) without Ca^2+ and Mg^2+. The tissue was transferred to an enzymatic dissociation media containing 20 IU/ml papain in Earle's balanced salt solution (Worthington Biochemical, Freehold, N.J.) and incubated for 30 minutes at 37° C. After enzymatic dissociation, the papain solution was aspirated and the tissue mechanically triturated with a fire-polished Pasteur pipette in complete media [Neurobasal Medium with B-27 supplement (Gibco, Grand Island, N.Y.), penicillin/streptomycin, aphidicolin, glutamate] containing 2,000 IU/ml DNase and 10 mg/ml ovomucoid protease inhibitor. Single-cell suspensions in complete media were plated on pre-coated poly-L-ornithine/laminin 24-well plates (Becton-Dickinson, Bedford, Mass.) at a density of 5.0×10^5 cells/well. Cells were maintained for one week prior to experimentation.
Cultures were exposed to 10 μM MPP^+ for 60 minutes. After the exposure, fresh media was exchanged and fresh compound was added. Dopaminergic neuron viability was determined 24 hours later by measuring ^3H-dopamine uptake as described in Pong et al., 1997, supra.

[4] = Drug exposure in ApoE KO mice fed supplemented chow; assay type: in vivo, mouse; settings: chow supplemented at 3.3 mg/g
[5] = system: Ascaris suum antigen-induced bronchoconstriction and AHR; settings: literature (Abraham et al. 1992; Jones et al. 1995); cited from earlier work

For `O=C(O)c1ccc(CCCc2c(CCNS(=O)(=O)Cc3ccc(Cl)c(Cl)c3)n(C(c3ccccc3)c3ccccc3)c3ccc(Cl)cc23)cc1` [Compound C, 4-{3-[1-benzhydryl-5-chloro-2-(2-{[(3,4-dichlorobenzyl)sulfonyl]amino}ethyl)-1H-indol-3-yl]propyl}benzoic acid], the PFA-100 closure time [1] was “increased closure time”, the “serum Thromboxane concentration” value (serum thromboxane B2) was 33.5 ± 11.6 ng/mL and the “Serum thromboxane B2 levels compared to control animals” value ([2]; 1.3 mg/g and 3.3 mg/g chow, after 9 and 20 weeks of treatment) was “significantly decreased”. The “percent of total animals with Stage 3 (advanced fibrous plaque)” value ([2]; 1.3 mg/g chow) was 33%, the “percent of total animals with Stage 4 (stable complicated lesion)” value ([2]; 1.3 mg/g chow) was 56% and the “percent of total animals with Stage 5 (unstable complicated lesion)” value ([2]; 1.3 mg/g chow) was 11%. For the same compound, the “decrease of atherosclerotic plaque burden at the aortic sinus vs control” value ([2]; 1.3 mg/g chow, p<0.05) was 32.7%, the “atherosclerotic plaque burden at the aortic sinus” value ([2]; 1.3 mg/g chow) was 349582±132685 μm^2 and the “Serum Thromboxane B2 Levels, % Decrease vs Control” value ([2]; 1.3 mg/g chow, after 9 weeks of treatment) was 52.5%. The “Serum Thromboxane B2 Levels, % Decrease vs Control” value ([2]; 1.3 mg/g chow, after 20 weeks of treatment) was 36.6%, the “Atherosclerotic Lesions Along the Aorta (percent lesion area), % Decrease vs Control” value ([2]; 1.3 mg/g chow) was 32.4 ns % and the “percent of total animals with Stage 1 (fibrofatty lesion)” value ([2]; 3.3 mg/g chow) was 9%. The “percent of total animals with Stage 2 (early fibrous plaque)” value ([2]; 3.3 mg/g chow) was 18%, the “percent of total animals with Stage 3 (advanced fibrous plaque)” value ([2]; 3.3 mg/g chow) was 37% and the “percent of total animals with Stage 4 (stable complicated lesion)” value ([2]; 3.3 mg/g chow) was 27%. The “percent of total animals with Stage 5 (unstable complicated lesion)” value ([2]; 3.3 mg/g chow) was 9%, the “decrease of atherosclerotic plaque burden at the aortic sinus vs control” value ([2]; 3.3 mg/g chow, p<0.001) was 45.6% and the “atherosclerotic plaque burden at the aortic sinus” value ([2]; 3.3 mg/g chow) was 282697±146462 μm^2. The “Serum Thromboxane B2 Levels, % Decrease vs Control” value ([2]; 3.3 mg/g chow, after 9 weeks of treatment) was 61.2%, the “Serum Thromboxane B2 Levels, % Decrease vs Control” value ([2]; 3.3 mg/g chow, after 20 weeks of treatment) was 49.5% and the “Atherosclerotic Lesions Along the Aorta (percent lesion area), % Decrease vs Control” value ([2]; 3.3 mg/g chow) was 35.2 ns %. The “atherosclerotic lesion complexity at the aortic sinus vs control” value ([2]; 1.3 and 3.3 mg/g chow) was “reduced”, the “dopaminergic neuron viability (3H-dopamine uptake), Avg.” value (“dopaminergic neuron viability” for short) ([3]; 0.3 μM) was 68.6 and the “dopaminergic neuron viability” value ([3]; 1 μM) was 70.6. The “dopaminergic neuron viability” value ([3]; 3 μM) was 75.9, the “dopaminergic neuron viability” value ([3]; 10 μM) was 79.6 and the maximum drug exposure [4] was ~500 ng/mL.
For `CC(c1cc2ccccc2s1)N(O)C(N)=O` (stereo not shown) [zileuton], the “effect on antigen-induced airway responses in the sheep model” value [5] is listed as “blocks antigen-induced late airway responses, inflammation, and AHR”.
